*1 amine or outer side, *2 acyl side, *3 side chain or, on linkers, in order; H or OH if unused. Where a SMILES comes first, the peptide text is derived from it. Bridges are numbered along the chain shown (N, C = ends). Side-chain parts run from the residue outwards. [ ]: non-standard residue; d: D form. The star is where a group is joined. dPhe(4-CONH2) = NC(=O)c1ccc(C[C@@H](N)C(=O)O)cc1; dPhe(4-CH2NH2) = NCc1ccc(C[C@@H](N)C(=O)O)cc1; NMePhe(4-Cl) = CN[C@@H](Cc1ccc(Cl)cc1)C(=O)O; dPhe(4-NH2) = Nc1ccc(C[C@@H](N)C(=O)O)cc1; Phe(4-Cl) = N[C@@H](Cc1ccc(Cl)cc1)C(=O)O; d(hCit) = NC(=O)NCCCC[C@@H](N)C(=O)O; NMeY = CN[C@@H](Cc1ccc(O)cc1)C(=O)O; dNMeY = CN[C@H](Cc1ccc(O)cc1)C(=O)O; NMeT = CN[C@H](C(=O)O)[C@@H](C)O; Lys(Me) = CNCCCC[C@H](N)C(=O)O; NMeK = CN[C@@H](CCCCN)C(=O)O; Nicotinoyl = O=C(c1cccnc1)*; NMeC = CN[C@@H](CS)C(=O)O; dNMeC = CN[C@H](CS)C(=O)O; dDap = NC[C@@H](N)C(=O)O; CO = O=C([*:1])[*:2]; NHPh = c1ccc(N*)cc1
Columns and labels:
SSTR3 = SSTR3 (Homo sapiens, UniProt P32745); test: PathHunter β-Arrestin assay, antagonist mode, SSTR3; type: cell-based; conditions: agonist challenge at EC80
Sequence of SSTR3 (P32745 whole entry, the tested form may be a part): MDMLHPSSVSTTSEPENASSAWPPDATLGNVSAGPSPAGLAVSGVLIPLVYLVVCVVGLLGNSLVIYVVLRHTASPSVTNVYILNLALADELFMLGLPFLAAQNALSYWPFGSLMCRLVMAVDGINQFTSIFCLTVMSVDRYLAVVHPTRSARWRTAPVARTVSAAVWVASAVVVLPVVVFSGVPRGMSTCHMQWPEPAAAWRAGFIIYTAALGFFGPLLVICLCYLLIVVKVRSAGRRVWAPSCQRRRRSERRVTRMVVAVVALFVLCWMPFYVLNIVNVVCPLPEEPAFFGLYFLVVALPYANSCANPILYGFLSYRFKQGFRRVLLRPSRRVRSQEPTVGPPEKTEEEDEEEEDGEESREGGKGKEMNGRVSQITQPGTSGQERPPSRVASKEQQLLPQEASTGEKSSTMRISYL
Protocol: The PathHunter® β-Arrestin assay monitors the activation of a GPCR in a homogenous, non-imaging assay format using a technology developed by DiscoveRx called Enzyme Fragment Complementation (EFC) with β-galactosidase (β-Gal) as the functional reporter. […] EA is fused to β-Arrestin and […] is fused to the GPCR of interest. When the GPCR is activated and β-Arrestin is recruited to the receptor, ED and EA complementation occurs, restoring β-Gal activity which is measured using chemiluminescent PathHunter® Detection Reagents. For antagonist determination, cells were pre-incubated with the compounds followed by agonist challenge at the EC80 concentration. Data was normalized to the maximal and minimal response observed in the presence of EC80 ligand and vehicle. Compound activity was analyzed using CBIS data analysis suite ChemInnovation, CA). Percentage inhibition was calculated using the following formula: % Inhibition=100%×(1−(mean signal of test sample-mean signal of vehicle control)/(mean signal of EC80 control-mean signal of vehicle control)). Percentage inhibition was calculated at 10 concentrations in steps on a Log 3 scale ranging from […] to 5e-5 μM. The results were plotted for IC50 calculation.

[1] = target: somatostatin type 2 (SSTR2) receptors (Homo sapiens, UniProt P30874); test: PathHunter β-Arrestin assay, antagonist mode, SSTR2; type: cell-based; conditions: agonist challenge at EC80
Sequence of somatostatin type 2 (SSTR2) receptors (P30874 whole entry): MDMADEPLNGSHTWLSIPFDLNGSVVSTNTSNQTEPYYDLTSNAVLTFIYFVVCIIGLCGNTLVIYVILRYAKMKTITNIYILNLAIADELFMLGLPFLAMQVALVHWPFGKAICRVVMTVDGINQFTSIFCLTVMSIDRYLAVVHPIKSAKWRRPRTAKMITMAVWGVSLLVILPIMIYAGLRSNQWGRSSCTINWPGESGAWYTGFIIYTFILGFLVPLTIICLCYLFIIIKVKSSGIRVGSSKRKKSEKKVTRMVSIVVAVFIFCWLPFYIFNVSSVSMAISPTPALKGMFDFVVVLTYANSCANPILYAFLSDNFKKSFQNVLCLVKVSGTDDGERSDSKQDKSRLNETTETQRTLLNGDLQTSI
In short: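 Cells co-expressing PK-tagged human receptor and EA-β-Arrestin were pre-incubated with compound, then challenged with agonist at EC80. β-Gal complementation read by chemiluminescence; % inhibition normalized to EC80 and vehicle controls at 10 concentrations (log 3 steps from 1 μM down to 5e-5 μM), fitted for IC50.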

Structure (SMILES) | IC50 (SSTR3) [nM] | IC50 [1] [nM]
C[C@@H](O)[C@@H]1NC(=O)[C@H](CCCCN)NC(=O)[C@@H](Cc2ccc(CN)cc2)NC(=O)[C@H](Cc2ccc(O)cc2)NC(=O)[C@H](NC(=O)[C@@H](N)Cc2ccc(Cl)cc2)CSSC[C@@H](C(=O)N[C@H](Cc2ccc(O)cc2)C(N)=O)NC1=O [Compound 5, H-Cpa-cyclo[DCys- Tyr-D-(4-aminomethyl)Phe- Lys-Thr-Cys]- DTyr-NH2] (H-[Phe(4-Cl)][dC]Y[dPhe(4-CH2NH2)]KTC[dY]-NH2; disulfide 2-7) | > 1000 | 213
CC(=O)NCc1ccc(C[C@H]2NC(=O)[C@H](Cc3ccc(O)cc3)NC(=O)[C@H](NC(=O)[C@@H](N)Cc3ccc(Cl)cc3)CSSC[C@@H](C(=O)N[C@H](Cc3ccc(O)cc3)C(N)=O)NC(=O)[C@H]([C@@H](C)O)NC(=O)[C@H](CCCCN)NC2=O)cc1 [Compound 6, H-Cpa-cyclo[DCys- Tyr-D-(4- acetamido- methyl)Phe- Lys-Thr-Cys]-DTyr- NH2] (H-[Phe(4-Cl)][dC]Y[dPhe(4-CH2NH2)](Ac)KTC[dY]-NH2; disulfide 2-7) | > 1000 | 166
C[C@@H](O)[C@@H]1NC(=O)[C@H](CCCCN)NC(=O)[C@@H](Cc2ccc(NC(=O)CN)cc2)NC(=O)[C@H](Cc2ccc(O)cc2)NC(=O)[C@H](NC(=O)[C@@H](N)Cc2ccc(Cl)cc2)CSSC[C@@H](C(=O)N[C@H](Cc2ccc(O)cc2)C(N)=O)NC1=O [Compound 8, H-Cpa-cyclo[DCys- Tyr-D-4-(Gly) Aph-Lys- Thr-Cys]-DTyr-NH2] (H-[Phe(4-Cl)][dC]Y[dPhe(4-NH2)](Gly)KTC[dY]-NH2; disulfide 2-7) | > 1000 | 84
C[C@@H](O)[C@@H]1NC(=O)[C@H](CCCCN)NC(=O)[C@@H](Cc2ccc(C(N)=O)cc2)NC(=O)[C@H](Cc2ccc(O)cc2)NC(=O)[C@H](NC(=O)[C@@H](N)Cc2ccc(Cl)cc2)CNC(=O)C[C@@H](C(=O)N[C@H](Cc2ccc(O)cc2)C(N)=O)NC1=O [Compound 69, H-Cpa-cyclo [DDap-Tyr- DPhe(4-CONH2)- Lys-Thr-Asp]- DTyr-NH2] (H-[Phe(4-Cl)][dDap]Y[dPhe(4-CONH2)]KTD[dY]-NH2; lactam 2-7) | – | > 1000
C[C@@H](O)[C@@H]1NC(=O)[C@H](CCCCN)NC(=O)[C@@H](Cc2ccc(NC(=O)Nc3ccccc3)cc2)NC(=O)[C@H](Cc2ccc(O)cc2)NC(=O)[C@H](NC(=O)[C@@H](N)Cc2ccc(Cl)cc2)CNC(=O)C[C@@H](C(=O)N[C@H](Cc2ccc(O)cc2)C(N)=O)NC1=O [Compound 70] (H-[Phe(4-Cl)][dDap]Y[dPhe(4-NH2)]([CO-NHPh])KTD[dY]-NH2; lactam 2-7) | – | > 1000
C[C@@H](O)[C@@H]1NC(=O)[C@H](CCCCN)N(C)C(=O)[C@@H](Cc2ccc(C(N)=O)cc2)NC(=O)[C@H](Cc2ccc(O)cc2)NC(=O)[C@H](NC(=O)[C@@H](N)Cc2ccc(Cl)cc2)CSSC[C@@H](C(=O)N[C@H](Cc2ccc(O)cc2)C(N)=O)NC1=O [Compound 72, H-Cpa-cyclo[DCys- Tyr-D-(4- carbamoyl)Phe- (N-alpha-Me)Lys- Thr-Cys]- DTyr-NH2] (H-[Phe(4-Cl)][dC]Y[dPhe(4-CONH2)][NMeK]TC[dY]-NH2; disulfide 2-7) | – | 5.77
C[C@@H](O)[C@H]1C(=O)N[C@H](C(=O)N[C@H](Cc2ccc(O)cc2)C(N)=O)CSSC[C@@H](NC(=O)[C@@H](N)Cc2ccc(Cl)cc2)C(=O)N[C@@H](Cc2ccc(O)cc2)C(=O)N[C@H](Cc2ccc(C(N)=O)cc2)C(=O)N[C@@H](CCCCN)C(=O)N1C [Compound 73, H-Cpa-[DCys-Tyr- DPhe(4-carbamoyl)- Lys-NMeThr- Cys]-DTyr-NH2] (H-[Phe(4-Cl)][dC]Y[dPhe(4-CONH2)]K[NMeT]C[dY]-NH2; disulfide 2-7) | – | 547
C[C@@H](O)[C@@H]1NC(=O)[C@H](CCCCN)NC(=O)[C@@H](Cc2ccc(C(N)=O)cc2)NC(=O)[C@H](Cc2ccc(O)cc2)N(C)C(=O)[C@H](NC(=O)[C@@H](N)Cc2ccc(Cl)cc2)CSSC[C@@H](C(=O)N[C@H](Cc2ccc(O)cc2)C(N)=O)NC1=O [Compound 74, H-Cpa-[DCys- NMeTyr-DPhe (4-carbamoyl)- Lys-Thr-Cys]- DTyr-NH2] (H-[Phe(4-Cl)][dC][NMeY][dPhe(4-CONH2)]KTC[dY]-NH2; disulfide 2-7) | – | 159
C[C@@H](O)[C@@H]1NC(=O)[C@H](CCCCN)NC(=O)[C@@H](Cc2ccc(C(N)=O)cc2)NC(=O)[C@H](Cc2ccc(O)cc2)NC(=O)[C@H](NC(=O)[C@@H](N)Cc2ccc(Cl)cc2)CSSC[C@@H](C(=O)N[C@H](Cc2ccc(O)cc2)C(N)=O)N(C)C1=O [Compound 76, H-Cpa-[DCys- Tyr-DPhe (4-carbamoyl)- Lys-Thr-NMeCys]- DTyr-NH2] (H-[Phe(4-Cl)][dC]Y[dPhe(4-CONH2)]KT[NMeC][dY]-NH2; disulfide 2-7) | – | 400
CN[C@@H](Cc1ccc(Cl)cc1)C(=O)N[C@@H]1CSSC[C@@H](C(=O)N[C@H](Cc2ccc(O)cc2)C(N)=O)NC(=O)[C@H]([C@@H](C)O)NC(=O)[C@H](CCCCN)NC(=O)[C@@H](Cc2ccc(C(N)=O)cc2)NC(=O)[C@H](Cc2ccc(O)cc2)NC1=O [Compound 77, H—(N-Me)Cpa-cyclo[D-Cys-Tyr-D-Phe(4-carbamoyl)-Lys-Thr-Cys]-D-Tyr-NH2] (H-[NMePhe(4-Cl)][dC]Y[dPhe(4-CONH2)]KTC[dY]-NH2; disulfide 2-7) | – | 2.25

Next, values leading:

IC50 (SSTR3) [nM] | IC50 [1] [nM] | Structure (SMILES)
> 1000 | 181 | C[C@@H](O)[C@@H]1NC(=O)[C@H](CCCCN)NC(=O)[C@@H](CCCCNC(N)=O)NC(=O)[C@H](Cc2ccc(O)cc2)NC(=O)[C@H](NC(=O)[C@@H](N)Cc2ccc(Cl)cc2)CSSC[C@@H](C(=O)N[C@H](Cc2ccc(O)cc2)C(N)=O)NC1=O [Compound 2, H-Cpa-cyclo[DCys- Tyr-DHoCit-Lys- Thr-Cys]- DTyr-NH2] (H-[Phe(4-Cl)][dC]Y[d(hCit)]KTC[dY]-NH2; disulfide 2-7)
> 1000 | 251 | C[C@@H](O)[C@@H]1NC(=O)[C@H](CCCCN)NC(=O)[C@@H](CCCCNC(=O)c2cccnc2)NC(=O)[C@H](Cc2ccc(O)cc2)NC(=O)[C@H](NC(=O)[C@@H](N)Cc2ccc(Cl)cc2)CSSC[C@@H](C(=O)N[C@H](Cc2ccc(O)cc2)C(N)=O)NC1=O [Compound 3, H-Cpa-cyclo[DCys- Tyr-D-(N^ϵ- nicotinoyl)Lys-Lys- Thr-Cys]-DTyr-NH2] (H-[Phe(4-Cl)][dC]Y[dK](Nicotinoyl)KTC[dY]-NH2; disulfide 2-7)
– | 13.3 | CNCCCC[C@@H]1NC(=O)[C@@H](Cc2ccc(C(N)=O)cc2)NC(=O)[C@H](Cc2ccc(O)cc2)NC(=O)[C@H](NC(=O)[C@@H](N)Cc2ccc(Cl)cc2)CNC(=O)C[C@@H](C(=O)N[C@H](Cc2ccc(O)cc2)C(N)=O)NC(=O)[C@H]([C@@H](C)O)NC1=O [Compound 71, H-Cpa-cyclo [DDap-Tyr- DPhe(4-CONH2)- Lys(Me)-Thr- Asp]-DTyr-NH2] (H-[Phe(4-Cl)][dDap]Y[dPhe(4-CONH2)][Lys(Me)]TD[dY]-NH2; lactam 2-7)
– | > 1000 | C[C@@H](O)[C@H]1C(=O)N[C@H](C(=O)N[C@H](Cc2ccc(O)cc2)C(N)=O)CSSC[C@@H](NC(=O)[C@@H](N)Cc2ccc(Cl)cc2)C(=O)N(C)[C@@H](Cc2ccc(O)cc2)C(=O)N[C@H](Cc2ccc(C(N)=O)cc2)C(=O)N[C@@H](CCCCN)C(=O)N1C [Compound 75, H-Cpa-[DCys-NMeTyr-DPhe(4-carbamoyl)-Lys-NMeThr-Cys]-DTyr-NH2] (H-[Phe(4-Cl)][dC][NMeY][dPhe(4-CONH2)]K[NMeT]C[dY]-NH2; disulfide 2-7)
– | 6.79 | C[C@@H](O)[C@@H]1NC(=O)[C@H](CCCCN)NC(=O)[C@@H](Cc2ccc(C(N)=O)cc2)NC(=O)[C@H](Cc2ccc(O)cc2)NC(=O)[C@H](N(C)C(=O)[C@@H](N)Cc2ccc(Cl)cc2)CSSC[C@@H](C(=O)N[C@H](Cc2ccc(O)cc2)C(N)=O)NC1=O [Compound 78, H-Cpa- [NMeDCys- Tyr-DPhe (4-carbamoyl)- Lys-Thr-Cys]- DTyr-NH2] (H-[Phe(4-Cl)][dNMeC]Y[dPhe(4-CONH2)]KTC[dY]-NH2; disulfide 2-7)
– | 28.7 | C[C@@H](O)[C@@H]1NC(=O)[C@H](CCCCN)NC(=O)[C@@H](Cc2ccc(C(N)=O)cc2)NC(=O)[C@H](Cc2ccc(O)cc2)NC(=O)[C@H](NC(=O)[C@@H](N)Cc2ccc(Cl)cc2)CSSC[C@@H](C(=O)N(C)[C@H](Cc2ccc(O)cc2)C(N)=O)NC1=O [Compound 79, H-Cpa-[DCys- Tyr-DPhe(4- carbamoyl)-Lys- Thr-Cys]- NMeDTyr-NH2] (H-[Phe(4-Cl)][dC]Y[dPhe(4-CONH2)]KTC[dNMeY]-NH2; disulfide 2-7)
– | > 1000 | CN[C@@H](Cc1ccc(Cl)cc1)C(=O)N[C@@H]1CSSC[C@@H](C(=O)N(C)[C@H](Cc2ccc(O)cc2)C(N)=O)NC(=O)[C@H]([C@@H](C)O)N(C)C(=O)[C@H](CCCCN)NC(=O)[C@@H](Cc2ccc(C(N)=O)cc2)NC(=O)[C@H](Cc2ccc(O)cc2)N(C)C1=O [Compound 80, H-NMeCpa-[DCys-NMeTyr-DPhe(4-carbamoyl)-Lys-NMeThr-Cys]-NMeTyr-NH2] (H-[NMePhe(4-Cl)][dC][NMeY][dPhe(4-CONH2)]K[NMeT]C[dNMeY]-NH2; disulfide 2-7)

Source: patent publication US12486302B2, “Somatostatin receptor antagonist compounds and methods of using the same” (CDRD VENTURES INC., priority 2016, dated 2025)
